Key:
Assay type in all cases: biochemical
human Yes1 enzyme = biological target: T1, human Yes1 enzyme (Homo sapiens, UniProt P07947); experiment: Yes1 enzyme inhibitory activity (time-resolved fluorometry, biotinylated peptide phosphorylation); conditions: read-out: YES_IC50
T1 construct: made in house
Method in brief: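 Inhibition was expressed against a compound-free control to give IC50, using TR-FRET read-out (Eu-cryptate anti-pTyr antibody, streptavidin-XL665).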

human Lck enzyme = biological target: T2, human Lck enzyme (Homo sapiens, UniProt P06239); experiment: Lck enzyme inhibitory activity (time-resolved fluorometry, biotinylated peptide phosphorylation); conditions: read-out: LCK_IC50
T2 construct: purchased Carna Biosciences, Inc. 08-170
Method in brief: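 Readout pairs a europium cryptate-labelled anti-phosphotyrosine antibody with XL665-streptavidin, measured by time-resolved fluorescence. IC50 derived from percent inhibition against untreated controls.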

human Src enzyme = biological target: T3, human Src enzyme (Homo sapiens, UniProt P12931); experiment: Src enzyme inhibitory activity (time-resolved fluorometry, biotinylated peptide phosphorylation); conditions: read-out: SRC_IC50
T3 construct: purchased Carna Biosciences, Inc. 08-173
Method in brief: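 Compounds were tested for blocking tyrosine phosphorylation of a biotinylated peptide substrate by recombinant human Src. Phosphorylated product was quantified by time-resolved fluorometry using europium cryptate and XL665 conjugates, and IC50 was calculated against the compound-free control.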

T3 sequence (P12931 whole entry): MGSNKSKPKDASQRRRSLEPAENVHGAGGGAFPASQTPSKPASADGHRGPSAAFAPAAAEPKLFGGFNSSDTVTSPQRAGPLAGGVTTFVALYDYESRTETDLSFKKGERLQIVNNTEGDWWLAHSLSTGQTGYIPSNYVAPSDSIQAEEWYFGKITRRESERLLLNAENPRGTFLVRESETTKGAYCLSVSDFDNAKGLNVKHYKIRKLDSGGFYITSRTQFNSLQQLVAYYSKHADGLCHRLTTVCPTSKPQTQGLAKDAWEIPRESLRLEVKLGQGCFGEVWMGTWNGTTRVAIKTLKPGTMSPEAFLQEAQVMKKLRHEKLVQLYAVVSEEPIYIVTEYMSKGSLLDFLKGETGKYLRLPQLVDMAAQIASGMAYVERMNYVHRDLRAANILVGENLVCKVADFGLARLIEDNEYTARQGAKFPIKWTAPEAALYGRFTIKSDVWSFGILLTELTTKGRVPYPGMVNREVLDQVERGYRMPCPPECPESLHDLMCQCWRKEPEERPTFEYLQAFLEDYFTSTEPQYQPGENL
T2 sequence (P06239 whole entry): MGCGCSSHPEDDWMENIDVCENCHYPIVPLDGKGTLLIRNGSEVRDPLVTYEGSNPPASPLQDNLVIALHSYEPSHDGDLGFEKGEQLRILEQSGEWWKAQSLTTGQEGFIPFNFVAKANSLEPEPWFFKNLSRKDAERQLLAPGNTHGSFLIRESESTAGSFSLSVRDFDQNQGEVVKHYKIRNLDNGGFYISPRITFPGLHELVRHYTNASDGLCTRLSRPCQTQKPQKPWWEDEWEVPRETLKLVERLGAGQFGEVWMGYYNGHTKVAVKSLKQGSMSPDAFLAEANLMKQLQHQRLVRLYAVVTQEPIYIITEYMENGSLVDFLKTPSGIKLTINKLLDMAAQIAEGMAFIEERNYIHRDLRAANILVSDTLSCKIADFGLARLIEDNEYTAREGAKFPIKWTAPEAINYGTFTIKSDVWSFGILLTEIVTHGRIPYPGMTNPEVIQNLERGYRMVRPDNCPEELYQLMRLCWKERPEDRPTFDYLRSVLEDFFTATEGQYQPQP
T1 sequence (P07947 whole entry): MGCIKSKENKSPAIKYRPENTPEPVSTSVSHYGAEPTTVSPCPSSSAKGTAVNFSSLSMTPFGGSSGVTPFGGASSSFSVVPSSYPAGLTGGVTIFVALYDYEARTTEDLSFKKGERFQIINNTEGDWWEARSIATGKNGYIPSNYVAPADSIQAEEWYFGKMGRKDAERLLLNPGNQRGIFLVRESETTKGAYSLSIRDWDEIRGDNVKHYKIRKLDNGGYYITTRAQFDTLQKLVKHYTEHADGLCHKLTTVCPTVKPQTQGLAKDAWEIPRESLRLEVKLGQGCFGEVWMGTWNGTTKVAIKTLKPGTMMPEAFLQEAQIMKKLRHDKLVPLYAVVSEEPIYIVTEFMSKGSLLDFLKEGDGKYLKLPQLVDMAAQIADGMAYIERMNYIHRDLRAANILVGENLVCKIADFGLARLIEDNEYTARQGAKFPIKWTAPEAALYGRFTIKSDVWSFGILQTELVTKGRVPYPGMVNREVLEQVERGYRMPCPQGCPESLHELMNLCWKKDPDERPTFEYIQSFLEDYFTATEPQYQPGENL

Structure (SMILES)	IC50 (human Yes1 enzyme) [µM]	IC50 (human Lck enzyme) [µM]	IC50 (human Src enzyme) [µM]
Cc1cc(Oc2ccccc2F)ccc1-n1ncc(C(=O)c2cc3cc(OCC(F)F)c(N4C(=O)OC[C@@H]4Cc4ccccc4)cc3[nH]2)c1N [Example 5-1-245, (4S)-3-[2-[5-amino-1-[4-(2-fluorophenoxy)-2-methylphenyl]pyrazole-4-carbonyl]-5-(2,2-difluoroethoxy)-1H-indol-6-yl]-4-benzyl-1,3-oxazolidin-2-one]	0.0071	0.057	0.023
COC(=O)[C@H](Cc1cnc[nH]1)NC(=O)Nc1cc2[nH]c(C(=O)c3cnn(-c4ccc(Oc5ccccc5F)cc4C)c3N)cc2cc1OCC(F)F [Example 5-1-246, Methyl (2S)-2-[[2-[5-amino-1-[4-(2-fluorophenoxy)-2-methylphenyl]pyrazole-4-carbonyl]-5-(2,2-difluoroethoxy)-1H-indol-6-yl]carbamoylamino]-3-(1H-imidazol-5-yl) propanoate]	0.0016	0.0071	0.016
Cc1cc(-n2ncc(C(=O)c3cc4cc(OC5CCN(C(C)C)CC5)c(C5CCOCC5)cc4[nH]3)c2N)ccc1Oc1ccccc1F [Example 5-1-247, (5-amino-1-(4-(2-fluorophenoxy)-3-methylphenyl)-1H-pyrazol-4-yl)(5-((1-isopropylpiperidin-4-yl)oxy)-6-(tetrahydro-2H-pyran-4-yl)-1H-indol-2-yl)methanone]	0.0021	0.034	0.12
Cc1cc(Oc2c(F)cccc2F)ncc1-n1ncc(C(=O)c2cc3cc(OC4CCN(C(C)C)CC4)c(C4CCOCC4)cc3[nH]2)c1N [Example 5-1-248, [5-amino-1-[6-(2,6-difluorophenoxy)-4-methylpyridin-3-yl]pyrazol-4-yl]-[6-(oxan-4-yl)-5-(1-propan-2-ylpiperidin-4-yl)oxy-1H-indol-2-yl]methanone]	0.00097	0.0047	0.0079
Cc1cc(Oc2c(F)cccc2F)ncc1-n1ncc(C(=O)c2cc3cc(OC4CCN(C(C)C)CC4)c(-c4cnn(C)c4)cc3[nH]2)c1N [Example 5-1-249, [5-amino-1-[6-(2,6-difluorophenoxy)-4-methylpyridin-3-yl]pyrazol-4-yl]-[6-(1-methylpyrazol-4-yl)-5-(1-propan-2-ylpiperidin-4-yl)oxy-1H-indol-2-yl]methanone]	0.00077	0.0037	0.0074
Cc1cc(Oc2ccccc2F)ccc1-n1ncc(C(=O)c2cc3cc(OCC(F)F)c(N4C(=O)[C@@H]5C[C@@H](O)CN5C4=O)cc3[nH]2)c1N [Example 5-1-250]	0.00076	0.0028	0.0075
Cc1cc(Oc2ccccc2F)ccc1-n1ncc(C(=O)c2cc3cc(OCC(F)F)c(N4C(=O)N[C@@H](Cc5ccc(O)cc5)C4=O)cc3[nH]2)c1N [Example 5-1-251, (5S)-3-[2-[5-amino-1-[4-(2-fluorophenoxy)-2-methylphenyl]pyrazole-4-carbonyl]-5-(2,2-difluoroethoxy)-1H-indol-6-yl]-5-[(4-hydroxyphenyl)methyl]imidazolidine-2,4-dione]	0.0038	0.015	0.025
Cc1cc(Oc2ccccc2F)ccc1-n1ncc(C(=O)c2cc3cc(OCC(F)F)c(N4C(=O)[C@@H]5CCCN5C4=O)cc3[nH]2)c1N [Example 5-1-252, (7aS)-2-[2-[5-amino-1-[4-(2-fluorophenoxy)-2-methylphenyl]pyrazole-4-carbonyl]-5-(2,2-difluoroethoxy)-1H-indol-6-yl]-5,6,7,7a-tetrahydropyrrolo[1,2-c]imidazole-1,3-dione]	0.0012	0.0046	0.014
Cc1cc(Oc2ccccc2F)ccc1-n1ncc(C(=O)c2cc3cc(OCC(F)F)c(N4C(=O)[C@@H]5C[C@H](NC(=O)OCC6c7ccccc7-c7ccccc76)CN5C4=O)cc3[nH]2)c1N [Example 5-1-253, 9H-fluoren-9-ylmethyl N-[(6S,7aS)-2-[2-[5-amino-1-[4-(2-fluorophenoxy)-2-methylphenyl]pyrazole-4-carbonyl]-5-(2,2-difluoroethoxy)-1H-indol-6-yl]-1,3-dioxo-5,6,7,7a-tetrahydropyrrolo[1,2-c]imidazol-6-yl] carbamate]	0.00033	0.046	0.023
Cc1cc(Oc2ccccc2F)ccc1-n1ncc(C(=O)c2cc3cc(OCC(F)F)c(N4C(=O)[C@@H]5C[C@H](NS(=O)(=O)CCCF)CN5C4=O)cc3[nH]2)c1N [Example 5-1-255, N-[(6S,7aS)-2-[2-[5-amino-1-[4-(2-fluorophenoxy)-2-methylphenyl]pyrazole-4-carbonyl]-5-(2,2-difluoroethoxy)-1H-indol-6-yl]-1,3-dioxo-5,6,7,7a-tetrahydropyrrolo[1,2-c]imidazol-6-yl]-3-fluoropropane-1-sulfonamide]	0.0011	0.0045	0.0089
Cc1cc(Oc2c(F)cccc2F)ncc1-n1ncc(C(=O)c2cc3cc(OCC(F)F)c(-c4cccs4)cc3[nH]2)c1N [Example 5-1-257, [5-amino-1-[6-(2,6-difluorophenoxy)-4-methylpyridin-3-yl]pyrazol-4-yl]-[5-(2,2-difluoroethoxy)-6-thiophen-2-yl-1H-indol-2-yl] methanone]	0.04	0.095	0.25

More lines, now with the values ahead:

IC50 (human Yes1 enzyme) [µM]	IC50 (human Lck enzyme) [µM]	IC50 (human Src enzyme) [µM]	Structure (SMILES)
0.018	0.72	2.9	Cc1cc(-n2ncc(C(=O)c3cc4cc(OCC(F)F)c(C5CCOCC5)cc4[nH]3)c2N)ccc1Oc1ccccc1F [Example 5-1-258, [5-amino-1-[4-(2-fluorophenoxy)-3-methylphenyl]pyrazol-4-yl]-[5-(2,2-difluoroethoxy)-6-(oxan-4-yl)-1H-indol-2-yl] methanone]
0.0075	0.025	0.05	Cc1cc(Oc2c(F)cccc2F)ncc1-n1ncc(C(=O)c2cc3cc(OCC(F)F)c(C4CCOCC4)cc3[nH]2)c1N [Example 5-1-259, [5-amino-1-[6-(2,6-difluorophenoxy)-4-methylpyridin-3-yl]pyrazol-4-yl]-[5-(2,2-difluoroethoxy)-6-(oxan-4-yl)-1H-indol-2-yl] methanone]
0.0085	0.044	0.061	Cc1cc(Oc2ccccc2F)ccc1-n1ncc(C(=O)c2cc3cc(C(C)C)c(Br)cc3[nH]2)c1N [Example 5-1-260, [5-amino-1-[4-(2-fluorophenoxy)-2-methylphenyl]pyrazol-4-yl]-(6-bromo-5-propan-2-yl-1H-indol-2-yl)methanone]
0.0079	0.2	0.39	Cc1cc(-n2ncc(C(=O)c3cc4cc(OCC(F)F)c(-c5cncnc5)cc4[nH]3)c2N)ccc1Oc1ccccc1F [Example 5-1-261, [5-amino-1-[4-(2-fluorophenoxy)-3-methylphenyl]pyrazol-4-yl]-[5-(2,2-difluoroethoxy)-6-pyrimidin-5-yl-1H-indol-2-yl]methanone]
0.0023	0.012	0.0064	Cc1cc(Oc2c(F)cccc2F)ncc1-n1ncc(C(=O)c2cc3cc(OCC(F)F)c(-c4cncnc4)cc3[nH]2)c1N [Example 5-1-262, [5-amino-1-[6-(2,6-difluorophenoxy)-4-methylpyridin-3-yl]pyrazol-4-yl]-[5-(2,2-difluoroethoxy)-6-pyrimidin-5-yl-1H-indol-2-yl]methanone]
0.019	0.71	2.6	Cc1cc(-n2ncc(C(=O)c3cc4cc(OCC(F)F)c(-c5cnn(C)c5)cc4[nH]3)c2N)ccc1Oc1ccccc1F [Example 5-1-263, [5-amino-1-[4-(2-fluorophenoxy)-3-methylphenyl]pyrazol-4-yl]-[5-(2,2-difluoroethoxy)-6-(1-methylpyrazol-4-yl)-1H-indol-2-yl]methanone]
0.0052	0.021	0.026	Cc1cc(Oc2c(F)cccc2F)ncc1-n1ncc(C(=O)c2cc3cc(OCC(F)F)c(-c4cnn(C)c4)cc3[nH]2)c1N [Example 5-1-264, [5-amino-1-[6-(2,6-difluorophenoxy)-4-methylpyridin-3-yl]pyrazol-4-yl]-[5-(2,2-difluoroethoxy)-6-(1-methylpyrazol-4-yl)-1H-indol-2-yl]methanone]
0.0054	0.038	0.44	Cc1cc(Oc2ccccc2F)ccc1-n1ncc(C(=O)c2cc3cc(F)c(N4C(=O)[C@@H]5C[C@H](NC(=O)OCC6c7ccccc7-c7ccccc76)CN5C4=O)cc3[nH]2)c1N [Example 5-1-265, 9H-fluoren-9-ylmethyl N-[(6S,7aS)-2-[2-[5-amino-1-[4-(2-fluorophenoxy)-2-methylphenyl]pyrazole-4-carbonyl]-5-fluoro-1H-indol-6-yl]-1,3-dioxo-5,6,7,7a-tetrahydropyrrolo[1,2-c]imidazol-6-yl]carbamate]
0.0021	0.011	0.011	Cc1cc(Oc2ccccc2F)ccc1-n1ncc(C(=O)c2cc3cc(C(C)C)c(N)cc3[nH]2)c1N [Example 5-1-266, [5-amino-1-[4-(2-fluorophenoxy)-2-methylphenyl]pyrazol-4-yl]-(6-amino-5-propan-2-yl-1H-indol-2-yl)methanone]
0.002	0.017	0.021	Cc1cc(Oc2ccccc2F)ccc1-n1ncc(C(=O)c2cc3cc(C(C)C)c(NS(C)(=O)=O)cc3[nH]2)c1N [Example 5-1-267, N-[2-[5-amino-1-[4-(2-fluorophenoxy)-2-methylphenyl]pyrazole-4-carbonyl]-5-propan-2-yl-1H-indol-6-yl]methanesulfonamide]
